According to ChEMBL document CHEMBL5154659, “A3 adenosine receptor agonists containing dopamine moieties for enhanced interspecies affinity” (Eur J Med Chem, 2022):

Experiments:
Adenosine receptor A3 [1] = molecular target: T1, Adenosine receptor A3 (Homo sapiens, UniProt P0DMS8); test: Displacement of [125I] N6-(4-amino-3-iodobenzyl)adenosine-5'-N-methyluronamide from human A3A receptor stably expressed in HEK293 cell membrane by radioligand inhibition assay; assay type: cell membranes
T1 sequence (P0DMS8 whole entry): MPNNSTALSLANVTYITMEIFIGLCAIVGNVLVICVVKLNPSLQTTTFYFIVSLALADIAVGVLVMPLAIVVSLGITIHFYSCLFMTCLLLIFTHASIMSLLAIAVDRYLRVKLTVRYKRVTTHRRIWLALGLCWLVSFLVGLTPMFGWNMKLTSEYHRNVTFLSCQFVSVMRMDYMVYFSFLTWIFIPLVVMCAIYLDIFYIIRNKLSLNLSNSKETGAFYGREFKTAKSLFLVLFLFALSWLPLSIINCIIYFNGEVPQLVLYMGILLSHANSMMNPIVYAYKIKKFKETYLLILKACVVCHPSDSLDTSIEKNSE

Adenosine receptor A3 [2] = molecular target: T2, Adenosine receptor A3 (Mus musculus, UniProt Q61618); test: Displacement of [125I] N6-4-amino-3-iodobenzyl adenosine 5-N-methyluronamide from mouse A3A receptor stably expressed in HEK293 cell membrane by radioligand inhibition assay; assay type: cell membranes
T2 sequence (Q61618 whole entry): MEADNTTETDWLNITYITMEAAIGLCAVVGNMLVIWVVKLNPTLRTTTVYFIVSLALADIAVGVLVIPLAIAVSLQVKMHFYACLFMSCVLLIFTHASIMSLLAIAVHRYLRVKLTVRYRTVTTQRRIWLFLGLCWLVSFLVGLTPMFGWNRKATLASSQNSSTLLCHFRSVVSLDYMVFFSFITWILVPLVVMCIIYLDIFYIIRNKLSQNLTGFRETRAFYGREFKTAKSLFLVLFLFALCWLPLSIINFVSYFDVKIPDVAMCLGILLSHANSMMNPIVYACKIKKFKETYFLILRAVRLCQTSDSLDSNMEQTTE

Adenosine receptor A2a [3] = molecular target: T3, Adenosine receptor A2a (Homo sapiens, UniProt P29274); test: Binding affinity to human adenosine A2A receptor expressed in human HEK293 cell membrane at 10 uM by radioligand inhibition assay; assay type: cell membranes
Adenosine receptor A1 = molecular target: T4, Adenosine receptor A1 (Mus musculus, UniProt Q60612); test: Displacement of [3H] N6-R-phenylisopropyladenosine from mouse A1A receptor stably expressed in HEK293 cell membrane by radioligand inhibition assay; assay type: cell membranes
T4 sequence (Q60612 whole entry): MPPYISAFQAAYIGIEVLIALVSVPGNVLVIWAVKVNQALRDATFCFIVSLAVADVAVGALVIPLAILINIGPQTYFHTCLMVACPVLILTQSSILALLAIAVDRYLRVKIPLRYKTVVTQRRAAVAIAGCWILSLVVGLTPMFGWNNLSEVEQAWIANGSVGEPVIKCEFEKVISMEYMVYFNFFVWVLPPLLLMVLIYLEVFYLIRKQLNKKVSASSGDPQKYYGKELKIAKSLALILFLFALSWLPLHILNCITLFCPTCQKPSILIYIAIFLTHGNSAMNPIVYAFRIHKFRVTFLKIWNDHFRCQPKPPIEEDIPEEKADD

[4] = molecular target: T5, Adenosine receptor A1 (Homo sapiens) (UniProt P30542); test: Binding affinity to human adenosine A1A receptor expressed in human HEK293 cell membrane at 10 uM by radioligand inhibition assay; assay type: cell membranes
T5 sequence (whole entry): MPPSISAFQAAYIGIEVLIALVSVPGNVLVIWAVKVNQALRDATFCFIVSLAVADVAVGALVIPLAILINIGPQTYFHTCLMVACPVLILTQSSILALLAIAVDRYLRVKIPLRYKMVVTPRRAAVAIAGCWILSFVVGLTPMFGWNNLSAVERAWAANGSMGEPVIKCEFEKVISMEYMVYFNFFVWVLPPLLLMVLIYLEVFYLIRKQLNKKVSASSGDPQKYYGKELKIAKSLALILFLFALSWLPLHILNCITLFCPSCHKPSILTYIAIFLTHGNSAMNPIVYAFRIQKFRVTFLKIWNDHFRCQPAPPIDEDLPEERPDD

Adenosine receptor A2a [5] = molecular target: T3, Adenosine receptor A2a; test: Displacement of [3H]-2-p-2-(carboxyethyl)phenyl-ethylamino-5'-N-ethylcarboxamidoadenosine from human A2A receptor stably expressed in HEK293 cell membrane by radioligand inhibition assay; assay type: cell membranes
[6] = molecular target: T6, Adenosine receptor A1 (Mus musculus) (UniProt Q60612); test: Binding affinity to mouse adenosine A1A receptor expressed in human HEK293 cell membrane by radioligand inhibition assay; assay type: cell membranes; design: concentration or dose not given beside the values; details: concentration not given here
T6 sequence (whole entry): T4 sequence (Q60612 whole entry)

Adenosine receptor A3 [7] = molecular target: T1, Adenosine receptor A3; test: Agonist activity at human adenosine A3A receptor stably expressed in HEK293 cells assessed as mini G-alpha recruitment potency by luciferase based NanoBiT assay; assay type: functional, cell-based
Adenosine receptor A3 [8] = molecular target: T1, Adenosine receptor A3; test: Agonist activity at human adenosine A3A receptor stably expressed in HEK293 cells assessed as beta arrestin 2 recruitment potency by luciferase based NanoBiT assay; assay type: functional, cell-based

T3 sequence (P29274 whole entry): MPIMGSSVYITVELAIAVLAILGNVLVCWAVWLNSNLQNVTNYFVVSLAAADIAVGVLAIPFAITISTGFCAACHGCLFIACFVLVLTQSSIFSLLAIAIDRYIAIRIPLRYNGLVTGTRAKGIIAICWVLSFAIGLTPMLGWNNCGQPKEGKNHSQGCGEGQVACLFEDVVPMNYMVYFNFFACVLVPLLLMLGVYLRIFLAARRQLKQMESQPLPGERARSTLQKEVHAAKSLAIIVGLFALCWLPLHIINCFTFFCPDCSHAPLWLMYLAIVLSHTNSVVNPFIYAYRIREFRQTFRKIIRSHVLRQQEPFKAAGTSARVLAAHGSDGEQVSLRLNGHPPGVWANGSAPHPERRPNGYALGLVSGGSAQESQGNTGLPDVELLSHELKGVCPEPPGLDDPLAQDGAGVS

SMILES | Ki (Adenosine receptor A3 [1]) [nM] | Ki (Adenosine receptor A3 [2]) [nM] | inhibition (Adenosine receptor A2a [3]) [%] | Ki (Adenosine receptor A1) [nM] | inhibition [4] [%] | Ki (Adenosine receptor A2a [5]) [nM] | inhibition [6] [%] | EC50 (Adenosine receptor A3 [7]) [nM] | EC50 (Adenosine receptor A3 [8]) [nM]
CNC(=O)[C@@]12C[C@@H]1[C@@H](n1cnc3c(NCCc4ccc(O)c(OC)c4)nc(I)nc31)[C@H](O)[C@@H]2O | 6.34 | 2.25 | 43 | 476 | 46 |  |  |  | 
CNC(=O)[C@@]12C[C@@H]1[C@@H](n1cnc3c(NCCc4ccc(O)c(OC)c4)nc(C#Cc4ccccc4)nc31)[C@H](O)[C@@H]2O | 0.563 | 1.54 | 28 | 5130 | 2 |  |  |  | 
CNC(=O)[C@@]12C[C@@H]1[C@@H](n1cnc3c(NCc4ccc(O)c(OC)c4)nc(C#Cc4ccc(Cl)s4)nc31)[C@H](O)[C@@H]2O |  |  |  | 2330 |  | 8210 |  |  | 
CNC(=O)[C@@]12C[C@@H]1[C@@H](n1cnc3c(NCCc4ccc(OC)c(O)c4)nc(OCCCC4CCCCC4)nc31)[C@H](O)[C@@H]2O |  | 6.42 |  |  |  |  |  |  | 
CNC(=O)[C@@]12C[C@@H]1[C@@H](n1cnc3c(NCCc4ccc(O)c(OC)c4)nc(C#Cc4ccco4)nc31)[C@H](O)[C@@H]2O | 3.25 | 1.56 | 32 |  | 9 |  | 40 |  | 
CNC(=O)[C@@]12C[C@@H]1[C@@H](n1cnc3c(NCCc4ccc(O)c(OC)c4)nc(C#Cc4ccsc4)nc31)[C@H](O)[C@@H]2O | 3.34 | 2.08 | 35 |  | 30 |  | 61 |  | 
CNC(=O)[C@@]12C[C@@H]1[C@@H](n1cnc3c(NCCc4ccc(OC)c(O)c4)nc(OC)nc31)[C@H](O)[C@@H]2O | 3.89 | 5.43 |  |  | 59 | 10200 |  | 38.5 | 50.2
CNC(=O)[C@@]12C[C@@H]1[C@@H](n1cnc3c(NCCc4ccc(OC)c(O)c4)nc(OCCC(C)C)nc31)[C@H](O)[C@@H]2O |  | 5.03 |  | 480 |  | 4860 |  |  | 
O[C@@H]1[C@H](O)[C@@H]2C[C@@H]2[C@H]1n1cnc2c(NCCc3ccccc3)nc(I)nc21 | 23.1 |  |  |  |  | 5860 |  |  | 
CNC(=O)[C@@]12C[C@@H]1[C@@H](n1cnc3c(NCCc4ccc(O)c(OC)c4)nc(C#Cc4ccc(Br)s4)nc31)[C@H](O)[C@@H]2O | 3.41 | 1.32 | 43 |  |  |  |  |  | 
COc1cc(CCNc2nc(OCC(C)C)nc3c2ncn3[C@H]2[C@H](O)[C@H](O)[C@@H]3C[C@@H]32)ccc1O | 13.1 |  |  |  | 4 | 5050 |  |  | 
CNC(=O)[C@@]12C[C@@H]1[C@@H](n1cnc3c(NCCc4ccc(O)c(O)c4)nc(C#Cc4ccc(Br)s4)nc31)[C@H](O)[C@@H]2O | 62.7 | 2.5 | 6 |  | 31 |  |  |  | 
CNC(=O)[C@@]12C[C@@H]1[C@@H](n1cnc3c(NCCc4ccc(OC)c(O)c4)nc(C#Cc4ccc(Cl)s4)nc31)[C@H](O)[C@@H]2O | 8.31 | 1.7 | 34 |  | 0 |  | 44 |  | 
CCOC(=O)[C@@]12C[C@@H]1[C@@H](n1cnc3c(NCCc4ccc(O)c(OC)c4)nc(C#Cc4ccc(Cl)s4)nc31)[C@H](O)[C@@H]2O | 37.4 |  | 33 |  | 0 |  | 57 |  | 
CNC(=O)[C@@]12C[C@@H]1[C@@H](n1cnc3c(NCCc4ccc(OC)c(O)c4)nc(OCC4CC4)nc31)[C@H](O)[C@@H]2O |  | 11.9 |  | 151 |  | 4720 |  |  | 
CCOC(=O)[C@@]12C[C@@H]1[C@@H](n1cnc3c(NCCc4ccccc4)nc(C#Cc4ccc(Cl)s4)nc31)[C@H](O)[C@@H]2O | 60.8 |  | 24 |  |  |  |  |  | 
CNC(=O)[C@@]12C[C@@H]1[C@@H](n1cnc3c(NCCc4ccc(O)c(OC)c4)nc(C#Cc4ccc(F)c(F)c4)nc31)[C@H](O)[C@@H]2O | 4.98 | 3.31 | 9 | 5800 | 11 |  |  |  | 
CNC(=O)[C@@]12C[C@@H]1[C@@H](n1cnc3c(NCCc4ccc(O)c(OC)c4)nc(C#Cc4cccs4)nc31)[C@H](O)[C@@H]2O | 3.33 | 1.26 | 37 |  | 12 |  | 47 |  | 
CNC(=O)[C@@]12C[C@@H]1[C@@H](n1cnc3c(NCCc4ccc(O)c(OC)c4)nc(C#Cc4ccc(F)s4)nc31)[C@H](O)[C@@H]2O | 3.31 | 1.46 | 32 |  | 2 |  | 48 | 23.7 | 24.9
CNC(=O)[C@@]12C[C@@H]1[C@@H](n1cnc3c(NCCc4ccc(O)c(O)c4)nc(C#Cc4ccc(Cl)s4)nc31)[C@H](O)[C@@H]2O | 20.8 | 0.91 | 8 |  | 25 |  |  |  | 
CNC(=O)[C@@]12C[C@@H]1[C@@H](n1cnc3c(NCCc4ccc(OC)c(OC)c4)nc(I)nc31)[C@H](O)[C@@H]2O |  | 5.31 |  | 842 |  |  |  |  | 
CNC(=O)[C@@]12C[C@@H]1[C@@H](n1cnc3c(NCCc4ccc(O)c(OC)c4)nc(C#Cc4ccc(Cl)s4)nc31)[C@H](O)[C@@H]2O | 5.29 | 3.16 | 31 | 3.75 |  |  |  | 43.9 | 39.7
CNC(=O)[C@@]12C[C@@H]1[C@@H](n1cnc3c(NCCc4ccccc4)nc(C#Cc4ccccc4Cl)nc31)[C@H](O)[C@@H]2O | 0.58 |  | 30 |  | 27 |  |  |  | 
CNC(=O)[C@@]12C[C@@H]1[C@@H](n1cnc3c(NCCc4ccccc4)nc(C#Cc4ccc(Cl)s4)nc31)[C@H](O)[C@@H]2O | 3.37 | 1.91 | 49 |  | 4 |  | 42 | 64.9 | 64
CNC(=O)[C@@]12C[C@@H]1[C@@H](n1cnc3c(NCCc4ccc(OC)c(OC)c4)nc(C#Cc4ccc(Br)s4)nc31)[C@H](O)[C@@H]2O | 8.01 |  | 36 |  |  |  |  |  | 
CCOC(=O)[C@@]12C[C@@H]1[C@@H](n1cnc3c(NCCc4ccc(OC)c(O)c4)nc(C#Cc4ccc(Cl)s4)nc31)[C@H](O)[C@@H]2O | 32.8 | 104 | 25 |  | 7 |  | 56 |  | 
